Experimental data reported in US20250352550A1, “SUBSTITUTED FUROPYRIDINES FOR THERAPEUTIC USE” (MASARYKOVA UNIVERZITA, priority 2022, published 2025).

Legend:
Type in all cases: biochemical
[1] = molecular target: T1, DDR1 (Homo sapiens, UniProt Q08345); experiment: HotSpot radiometric kinase assay (Reaction Biology), DDR1; conditions: 200 nM kinase, substrate IRS1tide 20 μM, 33P-ATP, 120 minutes at room temperature
T1 construct: purchased Reaction Biology
Description: (§1) The compounds were profiled in the HotSpot radiometric assays (Reaction Biology).
Briefly, • 1. Substrate indicated in Table 1 was dissolved in freshly prepared reaction buffer (20 mM HEPES (pH 7.5), 10 mM MgCl2, 1 mM EGTA, 0.01% Brij35, 0.02 mg/ml BSA, 0.1 mM Na3VO4, 2 mM DTT, 1% DMSO) at the concentration indicated in Table 1. • 2. Corresponding kinase (concentration indicated in Table 1) was added and the mixture was gently mixed. • 3. Tested compound dissolved in DMSO was added into the kinase reaction mixture. • 4. ^33P-ATP (specific activity 0.01 μCi/μL final) was added into the reaction mixture to initiate the reaction. • 5. The kinase reaction was incubated for 120 minutes at room temperature. • 6. […] The radioactive phosphorylated substrate remaining on the filter paper was measured.
(§2) Kinase activity data were expressed as the percent remaining kinase activity in tested samples compared to the vehicle (DMSO) reactions. IC50 values and curve fits were obtained using Prism4 Software (GraphPad).

[2] = molecular target: T2, KHS/MAP4K5 (Homo sapiens, UniProt Q9Y4K4); experiment: HotSpot radiometric kinase assay (Reaction Biology), KHS/MAP4K5; conditions: 1.5 nM kinase, substrate MBP 20 μM, 33P-ATP, 120 minutes at room temperature
T2 construct: purchased Reaction Biology
Description: as §1
(§3) Briefly, • 1. Substrate indicated in Table 1 was dissolved in freshly prepared reaction buffer (20 mM HEPES (pH 7.5), 10 mM MgCl2, 1 mM EGTA, 0.01% Brij35, 0.02 mg/ml BSA, 0.1 mM Na3VO4, 2 mM DTT, 1% DMSO) at the concentration indicated in Table 1. • 2. Corresponding kinase (concentration indicated in Table 1) was added and the mixture was gently mixed. • 3. Tested compound dissolved in DMSO was added into the kinase reaction mixture. • 4. ^33P-ATP (specific activity 0.01 μCi/μL final) was added into the reaction mixture to initiate the reaction. • 5. The kinase reaction was incubated for 120 minutes at room temperature. • 6. Reaction mixture was spotted onto P81 ion exchange paper (Whatman K 3698-915). • 7. The filters were extensively washed with […]. • 7. The radioactive phosphorylated substrate remaining on the filter paper was measured.
as §2
(§4) Table 2 summarizes the inhibitory activities of indicated compounds tested in the in vitro kinase assays described above.

[3] = molecular target: T3, FLT3 (Homo sapiens, UniProt P36888); experiment: HotSpot radiometric kinase assay (Reaction Biology), FLT3; conditions: 4 nM kinase, substrate ABLtide 20 μM, 33P-ATP, 120 minutes at room temperature
T3 construct: purchased Reaction Biology
T3 sequence (P36888 27-993): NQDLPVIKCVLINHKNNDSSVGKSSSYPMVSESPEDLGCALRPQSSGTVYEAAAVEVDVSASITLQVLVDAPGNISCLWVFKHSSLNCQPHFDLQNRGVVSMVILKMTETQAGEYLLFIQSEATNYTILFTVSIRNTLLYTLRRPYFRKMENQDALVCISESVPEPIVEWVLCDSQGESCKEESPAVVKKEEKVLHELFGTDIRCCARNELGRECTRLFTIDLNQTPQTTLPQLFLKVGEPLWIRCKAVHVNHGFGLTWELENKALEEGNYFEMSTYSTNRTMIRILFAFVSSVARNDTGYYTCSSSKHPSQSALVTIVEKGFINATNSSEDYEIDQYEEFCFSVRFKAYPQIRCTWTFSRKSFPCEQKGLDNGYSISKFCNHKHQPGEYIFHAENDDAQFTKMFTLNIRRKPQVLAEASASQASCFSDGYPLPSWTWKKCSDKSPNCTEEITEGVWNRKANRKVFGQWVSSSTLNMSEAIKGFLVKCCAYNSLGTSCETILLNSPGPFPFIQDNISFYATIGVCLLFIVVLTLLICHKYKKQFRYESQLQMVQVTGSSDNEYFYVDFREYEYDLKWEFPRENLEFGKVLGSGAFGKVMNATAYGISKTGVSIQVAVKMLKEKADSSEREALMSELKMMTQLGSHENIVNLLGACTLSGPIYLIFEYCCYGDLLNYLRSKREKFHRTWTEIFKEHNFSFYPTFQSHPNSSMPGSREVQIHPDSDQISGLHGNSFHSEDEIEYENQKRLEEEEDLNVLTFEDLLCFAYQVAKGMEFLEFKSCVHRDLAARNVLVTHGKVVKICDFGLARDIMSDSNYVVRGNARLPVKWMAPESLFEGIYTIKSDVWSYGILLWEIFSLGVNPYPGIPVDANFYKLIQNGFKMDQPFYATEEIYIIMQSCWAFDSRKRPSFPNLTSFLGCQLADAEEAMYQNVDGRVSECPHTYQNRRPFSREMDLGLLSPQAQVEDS
Description: as §1, §3, §2, §4

T2 sequence (Q9Y4K4 whole entry): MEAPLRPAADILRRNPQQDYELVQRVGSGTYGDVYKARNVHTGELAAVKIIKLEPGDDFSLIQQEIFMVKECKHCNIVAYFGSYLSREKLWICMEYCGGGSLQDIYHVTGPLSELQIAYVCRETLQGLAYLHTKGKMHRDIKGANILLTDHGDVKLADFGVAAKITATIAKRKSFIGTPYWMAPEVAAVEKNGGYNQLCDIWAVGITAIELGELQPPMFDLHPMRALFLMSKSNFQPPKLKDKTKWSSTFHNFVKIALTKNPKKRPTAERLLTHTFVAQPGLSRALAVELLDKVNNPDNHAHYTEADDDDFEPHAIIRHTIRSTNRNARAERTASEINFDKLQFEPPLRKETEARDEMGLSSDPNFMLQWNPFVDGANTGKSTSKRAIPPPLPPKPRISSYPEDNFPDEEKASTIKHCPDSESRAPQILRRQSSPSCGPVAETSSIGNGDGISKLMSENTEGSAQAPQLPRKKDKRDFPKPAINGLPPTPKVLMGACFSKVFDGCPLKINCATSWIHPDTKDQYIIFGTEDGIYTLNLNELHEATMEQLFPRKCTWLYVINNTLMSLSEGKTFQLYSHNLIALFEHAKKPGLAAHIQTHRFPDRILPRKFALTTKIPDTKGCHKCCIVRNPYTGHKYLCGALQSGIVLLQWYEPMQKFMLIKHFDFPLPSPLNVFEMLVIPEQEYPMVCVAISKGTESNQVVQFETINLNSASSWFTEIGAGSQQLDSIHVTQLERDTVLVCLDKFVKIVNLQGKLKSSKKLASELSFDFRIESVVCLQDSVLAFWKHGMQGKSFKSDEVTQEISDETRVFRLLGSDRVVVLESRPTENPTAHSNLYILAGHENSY
T1 sequence (Q08345 19-913): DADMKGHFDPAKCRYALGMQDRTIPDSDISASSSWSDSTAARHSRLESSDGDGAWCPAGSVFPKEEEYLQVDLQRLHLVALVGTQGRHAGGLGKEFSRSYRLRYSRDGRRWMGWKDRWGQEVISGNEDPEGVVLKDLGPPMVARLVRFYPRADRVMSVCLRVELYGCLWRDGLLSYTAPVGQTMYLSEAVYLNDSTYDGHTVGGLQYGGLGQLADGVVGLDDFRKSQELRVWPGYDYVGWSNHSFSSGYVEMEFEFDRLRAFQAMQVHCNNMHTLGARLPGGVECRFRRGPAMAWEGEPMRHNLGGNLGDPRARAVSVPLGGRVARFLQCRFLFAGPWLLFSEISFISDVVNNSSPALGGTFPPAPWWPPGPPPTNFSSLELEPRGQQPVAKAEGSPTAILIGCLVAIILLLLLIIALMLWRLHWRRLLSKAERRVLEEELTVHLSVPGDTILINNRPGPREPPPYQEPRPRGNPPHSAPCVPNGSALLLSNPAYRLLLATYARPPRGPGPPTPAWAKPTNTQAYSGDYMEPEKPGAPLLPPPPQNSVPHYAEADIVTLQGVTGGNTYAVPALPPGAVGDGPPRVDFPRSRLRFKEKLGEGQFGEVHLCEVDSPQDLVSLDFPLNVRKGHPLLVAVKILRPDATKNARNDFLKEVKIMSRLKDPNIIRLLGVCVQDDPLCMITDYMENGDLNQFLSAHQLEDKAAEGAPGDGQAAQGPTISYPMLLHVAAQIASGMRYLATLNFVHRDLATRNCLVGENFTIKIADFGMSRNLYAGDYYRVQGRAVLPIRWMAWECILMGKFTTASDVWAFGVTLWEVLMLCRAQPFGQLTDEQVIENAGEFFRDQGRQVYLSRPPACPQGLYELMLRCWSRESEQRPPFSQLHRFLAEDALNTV

Structure (SMILES) | IC50 [1] [nM] | IC50 [2] [nM] | IC50 [3] [nM]
CC(c1ccccc1)c1coc2cc(-c3ccc(N4CCN(C)CC4)cc3)cnc12 (racemic) [Preparative Example 203, 1-methyl-4-{4-[3-(1-phenylethyl)furo[3,2-b]pyridin-6-yl]phenyl}piperazine] | 808 | 804 | 
COc1cccc(-c2coc3cc(-c4ccc(N5CCNCC5)cc4)cnc23)c1 [Preparative Example 14, 3-(3-methoxyphenyl)-6-(4-(piperazin-1-yl)phenyl)furo[3,2-b]pyridine] | 116 | 906 | 49
Cn1cc(-c2coc3cc(-c4ccc(N5CCNCC5)cc4)cnc23)cn1 [Preparative Example 34, 3-(1-methyl-1H-pyrazol-4-yl)-6-(4-(piperazin-1-yl)phenyl)furo[3,2-b]pyridine] | 64 | 433 | 100
Fc1ccc(-c2coc3cc(-c4ccc(N5CCNCC5)cc4)cnc23)cc1 [Preparative Example 51, 3-(4-fluorophenyl)-6-(4-(piperazin-1-yl)phenyl)furo[3,2-b]pyridine] | 42 | 675 | 20
CN(C)C(=O)c1cccc(-c2coc3cc(-c4ccc(N5CCNCC5)cc4)cnc23)c1 [Preparative Example 54, N,N-dimethyl-3-(6-(4-(piperazin-1-yl)phenyl)furo[3,2-b]pyridin-3-yl)benzamide] | 301 | 538 | 207
CC(=O)c1cc(-c2coc3cc(-c4ccc(N5CCN(C)CC5)cc4)cnc23)ccn1 [Preparative Example 156, 1-(4-(6-(4-(4-methylpiperazin-1-yl)phenyl)furo[3,2-b]pyridin-3-yl)pyridin-2-yl)ethan-1-one] | 734 |  | 46
c1ccc(-c2ccccc2-c2coc3cc(-c4ccc(N5CCNCC5)cc4)cnc23)cc1 [Preparative Example 161, 3-([1,1′-biphenyl]-2-yl)-6-(4-(piperazin-1-yl)phenyl)furo[3,2-b]pyridine] | 209 |  | 832
CCCCOC(=O)c1cccc(-c2coc3cc(-c4ccc(N5CCNCC5)cc4)cnc23)c1 [Preparative Example 167, butyl 3-(6-(4-(piperazin-1-yl)phenyl)furo[3,2-b]pyridin-3-yl)benzoate] | 305 |  | 37
c1cc(-c2coc3cc(-c4ccc(OCCN5CCCCC5)cc4)cnc23)ccn1 [Preparative Example 171, 6-(4-(2-(piperidin-1-yl)ethoxy)phenyl)-3-(pyridin-4-yl)furo[3,2-b]pyridine] | 365 |  | 21
CN1CCN(c2ccc(-c3cnc4c(-c5ccccc5)coc4c3)cc2)CC1 [Preparative Example 172, 6-(4-(4-methylpiperazin-1-yl)phenyl)-3-phenylfuro[3,2-b]pyridine] | 141 |  | 33
CN1CCN(c2ccc(-c3cnc4c(-c5cccc(S(C)(=O)=O)c5)coc4c3)cc2)CC1 [Preparative Example 175, 6-(4-(4-methylpiperazin-1-yl)phenyl)-3-(3-(methylsulfonyl)phenyl)furo[3,2-b]pyridine] | 290 |  | 225
CN1CCN(c2ccc(-c3cnc4c(-c5cccc([S+](C)[O-])c5)coc4c3)cc2)CC1 (stereo not shown) [Preparative Example 181, 6-(4-(4-methylpiperazin-1-yl)phenyl)-3-(3-(methylsulfinyl)phenyl)furo[3,2-b]pyridine] | 284 |  | 99
CN1CCN(c2ccc(-c3cnc4c(Cc5ccccc5)coc4c3)cc2)CC1 [Preparative Example 186, 3-benzyl-6-(4-(4-methylpiperazin-1-yl)phenyl)furo[3,2-b]pyridine] | 620 |  | 373
Cc1c(-c2ccc(N3CCN(C)CC3)cc2)cnc2c(-c3ccccc3)coc12 [Preparative Example 188, 7-methyl-6-(4-(4-methylpiperazin-1-yl)phenyl)-3-phenylfuro[3,2-b]pyridine] | 186 |  | 147
Cc1oc2cc(-c3ccc(N4CCN(C)CC4)cc3)cnc2c1-c1ccccc1 [Preparative Example 196, 1-methyl-4-(4-{2-methyl-3-phenylfuro[3,2-b]pyridin-6-yl}phenyl)piperazine] | 148 |  | 96
CCCc1oc2cc(-c3ccc(N4CCN(C)CC4)cc3)cnc2c1-c1ccccc1 [Preparative Example 200, 1-methyl-4-(4-{3-phenyl-2-propylfuro[3,2-b]pyridin-6-yl}phenyl)piperazine] | 79 |  | 362
Cc1nn(C)cc1-c1coc2cc(-c3ccc(N4CCN(C)CC4)cc3)cnc12 [Preparative Example 216, 1-{4-[3-(1,3-dimethyl-1H-pyrazol-4-yl)furo[3,2-b]pyridin-6-yl]phenyl}-4-methylpiperazine] | 367 |  | 224
CN1CCN(c2ccc(-c3cnc4c(-c5ccccc5)c(-c5ccncc5)oc4c3)cc2)CC1 [Preparative Example 223, 1-methyl-4-{4-[3-phenyl-2-(pyridin-4-yl)furo[3,2-b]pyridin-6-yl]phenyl}piperazine] | 70 |  | 269
CN1CCN(c2ccc(-c3cnc4c(-n5ccnc5)coc4c3)cc2)CC1 [Preparative Example 231, 1-{4-[3-(1H-imidazol-1-yl)furo[3,2-b]pyridin-6-yl]phenyl}-4-methylpiperazine] | 213 |  | 101
COC(=O)c1cccc(-c2coc3cc(-c4ccc(N5CCN(C)CC5)cc4)cnc23)c1 [Preparative Example 237, methyl 3-{6-[4-(4-methylpiperazin-1-yl)phenyl]furo[3,2-b]pyridin-3-yl}benzoate] | 486 |  | 66
CONC(=O)c1cccc(-c2coc3cc(-c4ccc(N5CCN(C)CC5)cc4)cnc23)c1 [Preparative Example 238, N-methoxy-3-{6-[4-(4-methylpiperazin-1-yl)phenyl]furo[3,2-b]pyridin-3-yl}benzamide] | 77 |  | 22
CN1CCN(c2ccc(-c3cnc4c(-c5ccc(NC(=O)N(C)C)cc5)coc4c3)cc2)CC1 [Preparative Example 253, 3,3-dimethyl-1-(4-{6-[4-(4-methylpiperazin-1-yl)phenyl]furo[3,2-b]pyridin-3-yl}phenyl)urea] |  | 181 | 377
COc1ccc(-c2coc3cc(-c4ccc(N5CCN(C)CC5)cc4)cnc23)cc1 [Preparative Example 255, 3-(4-methoxyphenyl)-6-(4-(4-methylpiperazin-1-yl)phenyl)furo[3,2-b]pyridine] | 191 |  | 141
CN1CCN(c2ccc(-c3cnc4c(-c5ccc(C#N)cc5)coc4c3)cc2)CC1 [Preparative Example 257, 4-(6-(4-(4-methylpiperazin-1-yl)phenyl)furo[3,2-b]pyridin-3-yl)benzonitrile] | 200 |  | 28
